biological target: T1, Secreted chorismate mutase (Mycobacterium tuberculosis (strain ATCC 25618 / H37Rv), UniProt P9WIB9); experiment: CM Assay; details: 37 °C
T1 sequence (P9WIB9 whole entry): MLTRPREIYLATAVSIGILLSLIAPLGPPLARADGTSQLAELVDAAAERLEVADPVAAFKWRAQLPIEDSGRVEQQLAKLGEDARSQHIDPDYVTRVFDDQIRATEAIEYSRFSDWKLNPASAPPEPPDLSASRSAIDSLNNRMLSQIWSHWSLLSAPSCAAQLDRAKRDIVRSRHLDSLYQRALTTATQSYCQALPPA
Protocol: The reaction was initiated by the addition of 150pmoles of enzyme to a mixture of inhibitor (40µM, 20 µM, 10 µM, 5 µM, 1 µM and 0.5 µM ), 20µM chorismic acid in 50mM Tris-HCl, 0.5mM EDTA, 0.1mg/ml BSA, 10mM β-mercaptoethanol (pH-7.5). The assay mixture was incubated at 37°C for 5 min and the reaction was terminated by the addition of 40µL of 1N HCl and further incubation at 37°C for 1 to 5 min. Phenyl pyruvate formed at the end of reaction is converted to chromophoric base with the addition of 80µL 2.5N NaOH. The absorbance of each sample was read at 320nm. Positive control contained the assay mixture with carvacrol(40µM, 20 µM, 10 µM, 5 µM, 1 µM and 0.5 µM ).

| SMILES | IC50 [µM] |
| --- | --- |
| O=C1Nc2ccc(-c3ccccc3)cc2C1=O | 37.1 |
| NNC(=O)/N=C1\C(=O)Nc2ccccc21 [3‐amino‐1‐[(3Z)‐2‐oxo‐1H‐indol‐3‐ylidene]urea (Compound 10)] | 54.1 |
| O=NC1C(=O)Nc2ccccc21 (stereo not given) [(3Z)‐3‐(hydroxyimino)‐1H‐indol‐2‐one (Compound 15)] | 98.1 |
| O=C1Nc2ccccc2/C1=N/c1ncc([N+](=O)[O-])s1 [(3Z)‐3‐[(5‐nitro‐1,3‐thiazol‐2‐yl)imino]‐1H‐indol‐2‐ one (Compound 13)] | > 100 |
| CCN1C(=O)C(=O)c2ccccc21 [1‐ethylindole‐2,3‐dione (Compound 3)] | 22.7 |
| Cc1ccc(C)c(-c2ccc3c(c2)C(=O)C(=O)N3)c1 [5‐(2,5‐dimethylphenyl)‐1H‐indole‐2,3‐dione (Compound 18)] | 36.5 |
| O=C1Nc2ccc(N3CCCCC3)cc2C1=O [5‐(piperidin‐1‐yl)‐1H‐indole‐2,3‐dione (Compound 22)] | 25.6 |
| C=CCN1C(=O)C(=O)c2ccccc21 [1‐(prop‐2‐en‐1‐yl)indole‐2,3‐dione (Compound 5)] | 96.6 |
| O=C1Nc2ccccc2/C1=C/c1ccc([N+](=O)[O-])cc1 [3-(4-nitrobenzylidene)indolin-2-one (Compound 24)] | 1.01 |
| O=C1Nc2ccccc2C1=O [2,3-dihydro-1H-indole-2,3-dione] | 1.08 |
| CC(C)(C)C(=O)N1C(=O)C(=O)c2ccccc21 [1‐(2,2‐dimethylpropanoyl)indole‐2,3‐dione (Compound 8)] | 41 |
| NNC(=S)N=C1C(=O)Nc2ccccc21 [3‐amino‐1‐[(3Z)‐2‐oxo‐1H‐indol‐3‐ylidene]thiourea (Compound 9)] | 66.9 |
| O=C1Nc2ccc(N3CCN(c4cccc(C(F)(F)F)c4)CC3)cc2C1=O [5‐{4‐[3‐(trifluoromethyl)phenyl]piperazin‐1‐yl}‐1H‐ indole‐2,3‐dione (Compound 21)] | 55.7 |
| CC(=O)n1c(O)c(NC(=S)N=N)c2ccccc21 [1‐[(3Z)‐1‐acetyl‐2‐oxoindol‐3‐ylidene]‐3‐ aminothiourea (Compound 11)] | 30.5 |
| CC(=O)N1C(=O)C(=NC(=O)NN)c2ccccc21 [1‐[(3Z)‐1‐acetyl‐2‐oxoindol‐3‐ylidene]‐3‐aminourea (Compound 12)] | 25 |
| CN1CCN(c2ccc3c(c2)C(=O)C(=O)N3)CC1 [5‐(4‐methylpiperazin‐1‐yl)‐1H‐indole‐2,3‐dione (Compound 20)] | 31.9 |
| O=C1Nc2ccccc2/C1=N/c1nc2ccc([N+](=O)[O-])cc2s1 [(3Z)‐3‐[(6‐nitro‐1,3‐benzothiazol‐2‐yl)imino]‐1H‐ indol‐2‐one (Compound 14)] | > 100 |
| O=C1Nc2ccc(N3CCN(C(=O)c4ccco4)CC3)cc2C1=O [5‐[4‐(furan‐2‐carbonyl)piperazin‐1‐yl]‐1H‐indole‐ 2,3‐dione (Compound 23)] | 28.8 |
| CN1C(=O)C(=O)c2ccccc21 [1-methyl-2,3-dihydro-1H-indole-2,3-dione] | 1.96 |
| CC(=O)N1C(=O)C(=O)c2ccccc21 [Acetylisatin (Compound 7)] | 0.99 |
| O=C1Nc2ccc(-c3cccc(Cl)c3Cl)cc2C1=O [5‐(2,3‐dichlorophenyl)‐1H‐indole‐2,3‐dione (Compound 17)] | 95.7 |
| O=C1Nc2ccccc2/C1=C/c1ccc([N+](=O)[O-])s1 [3-((5-nitrothiophen-2-yl)methylene)indolin-2-one (Compound 25)] | 0.93 |
| O=C1Nc2ccc(N3CCNCC3)cc2C1=O [5‐(piperazin‐1‐yl)‐1H‐indole‐2,3‐dione (Compound 19)] | 39.9 |
| O=C1C(=O)N(c2ccccc2)c2ccccc21 [1-phenyl-2,3-dihydro-1H-indole-2,3-dione] | 23.3 |
| CC(C)N1C(=O)C(=O)c2ccccc21 [1‐isopropylindole‐2,3‐dione (Compound 4)] | 75.1 |

From BindingDB's records for doi:10.1111/cbdd.12265 (Birla Institute of Technology, 2014)
